Laboratory results as given in the NIST ThermoML archive (doi:10.1021/je100949x).
± gives the expanded uncertainty stated by the source.

Assay: xn = mol fraction of the nth substance listed
Details: Maximal bubble pressure

CCCCn1cc[n+](C)c1.[Cl-] [1-butyl-3-methylimidazolium chloride] + O
Details | surface tension liquid-gas [mN/m]
298.1 K, x1 = 0.011 | 66.2 ± 1.1
298.1 K, x1 = 0.015 | 65.5 ± 1.9
298.1 K, x1 = 0.018 | 64.7 ± 3.4
298.2 K, x1 = 0.004 | 69.9 ± 1
298.2 K, x1 = 0.025 | 64.5 ± 4
298.2 K, x1 = 0.031 | 63.7 ± 0.7
298.3 K, x1 = 0.007 | 68.8 ± 1.5
298.3 K, x1 = 0.053 | 61.7 ± 0.7
298.3 K, x1 = 0.073 | 59.9 ± 1
298.7 K, x1 = 0.142 | 56.7 ± 0.5
298.9 K, x1 = 0.112 | 57.6 ± 1.2
298.9 K, x1 = 0.226 | 55 ± 0.5
299 K, x1 = 0.188 | 55.4 ± 0.5
299.1 K, x1 = 0.004 | 68.9 ± 2.3
299.2 K, x1 = 0.009 | 66.5 ± 0.6
299.2 K, x1 = 0.016 | 65 ± 0.7
299.2 K, x1 = 0.023 | 63.8 ± 0.9
299.2 K, x1 = 0.303 | 55 ± 0.5
299.3 K, x1 = 0.03 | 62.8 ± 1.5
299.5 K, x1 = 0.033 | 63.3 ± 1.2
299.5 K, x1 = 0.037 | 63 ± 1
299.5 K, x1 = 0.374 | 54.9 ± 0.5
299.6 K, x1 = 0.028 | 64.1 ± 1.4
299.7 K, x1 = 0.002 | 70.5 ± 0.4
299.7 K, x1 = 0.011 | 67.1 ± 0.9
299.7 K, x1 = 0.017 | 65.6 ± 0.6
299.9 K, x1 = 0.067 | 59.3 ± 0.5
300 K, x1 = 0.048 | 61 ± 4.1
300.1 K, x1 = 0.422 | 54.3 ± 0.6
300.3 K, x1 = 0.077 | 59.6 ± 1.2
300.3 K, x1 = 0.11 | 57 ± 0.5
300.4 K, x1 = 0.089 | 57.9 ± 0.6
300.4 K, x1 = 0.292 | 53.7 ± 0.9
300.5 K, x1 = 0.139 | 55.8 ± 0.7
300.5 K, x1 = 0.198 | 54.9 ± 0.4
300.6 K, x1 = 0.134 | 55.9 ± 0.4
300.6 K, x1 = 0.48 | 54.1 ± 0.5
300.7 K, x1 = 0.163 | 55.4 ± 0.4
300.9 K, x1 = 0.36 | 53.8 ± 1.3
301.1 K, x1 = 0.225 | 54.4 ± 0.5
301.2 K, x1 = 0.268 | 54.8 ± 0.5
301.6 K, x1 = 0.329 | 54.6 ± 0.6
302.1 K, x1 = 0.398 | 54.4 ± 0.5

CCCCn1cc[n+](C)c1.F[B-](F)(F)F [1-butyl-3-methylimidazolium tetrafluoroborate] + O
Details | surface tension liquid-gas [mN/m]
298 K, x1 = 0.053 | 47.7 ± 0.5
298 K, x1 = 0.114 | 48.1 ± 0.3
298.1 K, x1 = 0.014 | 52.4 ± 6
298.1 K, x1 = 0.046 | 47.8 ± 3.6
298.2 K, x1 = 0.007 | 60.4 ± 4.6
298.2 K, x1 = 0.021 | 49.2 ± 9.6
298.3 K, x1 = 0.029 | 47.8 ± 0.6
298.3 K, x1 = 0.033 | 47.9 ± 0.6
298.3 K, x1 = 0.068 | 48.1 ± 1.1
298.3 K, x1 = 0.186 | 48.1 ± 0.4
298.4 K, x1 = 0.004 | 60.8 ± 3.2
298.4 K, x1 = 0.019 | 48.9 ± 8.2
298.4 K, x1 = 0.028 | 48 ± 1.1
298.4 K, x1 = 0.114 | 48.1 ± 0.9
298.4 K, x1 = 0.17 | 48.1 ± 0.9
298.4 K, x1 = 0.228 | 47.9 ± 1
298.5 K, x1 = 0.006 | 56.1 ± 7.4
298.5 K, x1 = 0.009 | 53.2 ± 6.8
298.5 K, x1 = 0.013 | 50.7 ± 4
298.5 K, x1 = 0.109 | 48.4 ± 2.7
298.5 K, x1 = 0.163 | 48.2 ± 0.5
298.6 K, x1 = 0.026 | 48.5 ± 1.5
298.6 K, x1 = 0.061 | 48.4 ± 0.4
298.6 K, x1 = 0.233 | 47.9 ± 0.4
298.6 K, x1 = 0.292 | 47.6 ± 0.9
298.6 K, x1 = 0.355 | 47.5 ± 0.7
298.7 K, x1 = 0.014 | 50.7 ± 1.3
298.7 K, x1 = 0.05 | 48.3 ± 1.7
298.7 K, x1 = 0.42 | 47.4 ± 0.7
298.8 K, x1 = 0.01 | 53.2 ± 4.9
298.8 K, x1 = 0.319 | 47.7 ± 0.4
298.9 K, x1 = 0.392 | 47.5 ± 0.4
298.9 K, x1 = 0.435 | 47.2 ± 0.7
299 K, x1 = 0.004 | 60.3 ± 22
299.2 K, x1 = 0.51 | 47.3 ± 0.8

O [water] + CCCCn1cc[n+](C)c1.F[B-](F)(F)F
x2 = 0
Details | surface tension liquid-gas [mN/m]
298.1 K | 72 ± 3.6
298.5 K | 71.9 ± 7.7
298.9 K | 71.8 ± 8.2

O [water] + CCCCn1cc[n+](C)c1.[Cl-]
x2 = 0
Details | surface tension liquid-gas [mN/m]
298.1 K | 71.9 ± 0.7
298.9 K | 71.7 ± 0.6
299.7 K | 71.6 ± 0.4
